By IC50 is commonly meant the concentration at which inhibition is half-maximal. Low readings indicate higher potency, high ones lower potency.

Some results are limits rather than exact numbers.

The target of one test is CYP17 (Rattus norvegicus (Rat), UniProt P11715). In words: Inhibition of CYP17 (rat testicular microsomes). To be noted: pooled rat testicular microsomes. In kind it is biochemical.
The next test deals with CYP2C9 (Homo sapiens (Human), UniProt P11712). Put plainly: Inhibition of liver cytochrome P450 enzymes (human liver microsomes), CYP2C9.
Chain of CYP2C9 (P11712 whole entry): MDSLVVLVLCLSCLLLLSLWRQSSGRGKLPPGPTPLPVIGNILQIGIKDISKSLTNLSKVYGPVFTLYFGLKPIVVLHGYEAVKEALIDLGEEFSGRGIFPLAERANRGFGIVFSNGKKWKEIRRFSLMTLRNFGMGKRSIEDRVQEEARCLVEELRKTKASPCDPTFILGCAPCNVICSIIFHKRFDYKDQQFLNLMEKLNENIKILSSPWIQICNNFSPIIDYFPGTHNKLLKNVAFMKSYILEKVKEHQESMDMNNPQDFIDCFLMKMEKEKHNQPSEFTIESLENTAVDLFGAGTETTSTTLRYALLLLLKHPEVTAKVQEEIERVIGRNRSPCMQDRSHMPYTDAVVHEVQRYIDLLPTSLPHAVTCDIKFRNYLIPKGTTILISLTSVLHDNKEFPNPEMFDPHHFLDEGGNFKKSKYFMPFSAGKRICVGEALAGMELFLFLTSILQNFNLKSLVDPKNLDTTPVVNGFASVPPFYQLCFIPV
Another test concerns the target CYP2C19 (Homo sapiens (Human), UniProt P33261). Put plainly: Inhibition of liver cytochrome P450 enzymes (human liver microsomes), CYP2C19.
Another test deals with CYP3A4 (Homo sapiens (Human), UniProt P08684). Put plainly: Inhibition of liver cytochrome P450 enzymes (human liver microsomes), CYP3A4.
Chain of CYP3A4 (P08684 whole entry): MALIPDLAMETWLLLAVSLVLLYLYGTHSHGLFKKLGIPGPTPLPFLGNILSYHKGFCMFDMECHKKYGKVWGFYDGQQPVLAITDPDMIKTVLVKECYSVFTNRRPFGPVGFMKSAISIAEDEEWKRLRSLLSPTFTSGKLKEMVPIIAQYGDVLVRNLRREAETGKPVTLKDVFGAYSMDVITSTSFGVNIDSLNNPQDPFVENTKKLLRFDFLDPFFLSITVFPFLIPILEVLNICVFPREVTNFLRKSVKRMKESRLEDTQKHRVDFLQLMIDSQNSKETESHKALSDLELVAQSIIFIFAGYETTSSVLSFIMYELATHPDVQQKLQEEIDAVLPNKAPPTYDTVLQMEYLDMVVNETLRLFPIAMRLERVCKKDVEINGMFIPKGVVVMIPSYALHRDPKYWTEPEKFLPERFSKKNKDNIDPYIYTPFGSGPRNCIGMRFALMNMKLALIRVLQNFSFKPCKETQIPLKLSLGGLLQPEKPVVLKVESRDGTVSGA

Chain of CYP17 (P11715 whole entry): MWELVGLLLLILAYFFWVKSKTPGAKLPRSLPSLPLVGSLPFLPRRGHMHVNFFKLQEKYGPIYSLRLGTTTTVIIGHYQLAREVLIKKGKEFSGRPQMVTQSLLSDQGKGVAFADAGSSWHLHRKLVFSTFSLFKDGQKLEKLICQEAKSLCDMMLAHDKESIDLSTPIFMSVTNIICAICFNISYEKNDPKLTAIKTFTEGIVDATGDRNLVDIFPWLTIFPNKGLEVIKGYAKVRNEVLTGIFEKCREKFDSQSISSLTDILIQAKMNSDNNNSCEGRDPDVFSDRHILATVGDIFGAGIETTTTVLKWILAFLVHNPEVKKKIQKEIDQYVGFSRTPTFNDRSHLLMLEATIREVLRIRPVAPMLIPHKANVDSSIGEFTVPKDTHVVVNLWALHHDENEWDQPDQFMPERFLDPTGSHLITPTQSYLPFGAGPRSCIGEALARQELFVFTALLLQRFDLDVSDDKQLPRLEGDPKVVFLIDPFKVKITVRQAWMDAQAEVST
Chain of CYP2C19 (P33261 whole entry): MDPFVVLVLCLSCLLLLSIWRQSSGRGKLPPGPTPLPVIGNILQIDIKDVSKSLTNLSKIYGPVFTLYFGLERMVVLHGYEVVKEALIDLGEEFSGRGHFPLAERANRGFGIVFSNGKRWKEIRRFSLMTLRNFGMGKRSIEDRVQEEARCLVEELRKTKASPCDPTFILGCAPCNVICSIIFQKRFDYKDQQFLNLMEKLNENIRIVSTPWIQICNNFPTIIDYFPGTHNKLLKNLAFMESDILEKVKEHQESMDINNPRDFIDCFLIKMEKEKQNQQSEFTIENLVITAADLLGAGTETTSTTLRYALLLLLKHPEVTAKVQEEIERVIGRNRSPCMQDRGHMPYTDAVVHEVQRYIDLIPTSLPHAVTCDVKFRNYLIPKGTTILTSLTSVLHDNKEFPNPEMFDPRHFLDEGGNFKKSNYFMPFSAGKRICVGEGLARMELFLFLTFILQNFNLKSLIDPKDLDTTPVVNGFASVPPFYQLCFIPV

As for `CC(C)C(c1ccc2cc(OCC(F)(F)F)ccc2c1)n1ncnn1` (centres unmarked) [Example 2, 2-(2-Methyl-1-(6-(2,2,2-trifluoroethoxy)naphthalen-2-yl)propyl)-2H-tetrazole], the 50% inhibitory concentration (IC50) on CYP17 stood at 0.46 µM; at CYP2C9 it was 27 µM; against CYP2C19, 45 µM.
On to `COc1cc2ccc(C(C(C)C)n3ncnn3)cc2cc1OC` (centres unmarked) [Example 3, 2-(1-(6,7-Dimethoxynaphthalen-2-yl)-2-methylpropyl)-2H-tetrazole], for which the IC50 on CYP17 is 0.27 µM; on CYP2C9, 4.8 µM; against CYP3A4, more than 200 µM; on CYP2C19, 30 µM.
Turning to `CC(C)C(c1ccc2cc(OC(F)F)c(OC(F)F)cc2c1)n1ncnn1` (centres unmarked) [Example 1, 2-(1-(6,7-bis(difluoromethoxy)naphthalen-2-yl)-2-methylpropyl)-2H-tetrazole], the half-inhibitory concentration (IC50) against CYP17 was 0.4 µM; at CYP2C9, 7 µM; against CYP3A4, more than 200 µM; against CYP2C19 it was 37 µM.
As for `CC(C)C(c1ccc2cc(OC(F)F)ccc2c1)n1ncnn1` (centres unmarked) [Example 4, 2-(1-(6-(difluoromethoxy)naphthalen-2-yl)-2-methylpropyl)-2H-tetrazole], the results for the IC50 against CYP17, against CYP2C9 and against CYP2C19 were 0.21 µM, 15 µM and 35 µM, respectively.

The values above are taken from US8987315B2, “Metalloenzyme inhibitor compounds” (Innocrin Pharmaceuticals, Inc., priority 2009, dated 2015).
